Measurements from the NIST ThermoML archive (doi:10.1007/s10765-012-1373-z).

Details: Liquid; for mass density: Buoyancy - hydrostatic balance; for viscosity: Falling or rolling sphere viscometry

CCCCCCC [heptane]
Details | mass density [kg/m3] | viscosity [mPa·s]
298.15 K, 98 kPa | 679.99 | 0.396
298.15 K, 24510 kPa | 702.85 | 0.4923
298.15 K, 49030 kPa | 718.61 | 0.602
298.15 K, 98060 kPa | 741.52 | 0.8489
298.15 K, 147100 kPa | 760.47 | 1.137
298.15 K, 196130 kPa | 780.16 | 1.493
298.15 K, 245160 kPa | 792.15 | 1.91
303.15 K, 98 kPa | 674.98 | 0.373
303.15 K, 24510 kPa | 697.11 | 0.4737
303.15 K, 49030 kPa | 713.79 | 0.5696
303.15 K, 98060 kPa | 739.05 | 0.8037
303.15 K, 147100 kPa | 759.49 | 1.071
303.15 K, 196130 kPa | 777.85 | 1.389
303.15 K, 245160 kPa | 789.56 | 1.744
323.11 K, 49030 kPa | 701.18 | 0.4816
323.13 K, 24510 kPa | 680.94 | 0.3966
323.2 K, 98060 kPa | 731.08 | 0.6613
323.2 K, 147100 kPa | 749.97 | 0.87
323.21 K, 196130 kPa | 768.38 | 1.112
323.25 K, 98 kPa | 659.16 | 0.3107
323.25 K, 245160 kPa | 783.33 | 1.378
362.8 K, 147100 kPa | 731.67 | 0.6488
362.83 K, 98060 kPa | 709.5 | 0.4956
362.85 K, 49030 kPa | 675.9 | 0.3626
362.87 K, 196130 kPa | 752.22 | 0.8089
362.92 K, 98 kPa | 622.63 | 0.2146
